Reference: patent US20020123471A1, “LENTIVIRUS BASED VECTOR AND VECTOR SYSTEM” (priority 1997, published 2002)

Tested on: SIV[SIV] or SIV[MLV] vector particles
Assay: Inhibition of retroviral transfer of V1-luc into CEMx174 cells by reverse transcriptase inhibitor
Assay type: cell-based
Details: Simian immunodeficiency virus, CEMx174, read-out: transfer of V1-luc inhibited

Q: `Cc1cn([C@H]2C[C@H](N=[N+]=[N-])[C@@H](CO)O2)c(=O)[nH]c1=O` [Zidovudine, 3′-azido-2′,3′-dideoxythymidine] was tested. Which inhibition at 10 µM did it give?
A: 90%
